US20240343694A1, “PYRIMIDINE DERIVATIVE, METHOD FOR PREPARING SAME, AND PHARMACEUTICAL COMPOSITION FOR PREVENTING OR TREATING CANCER COMPRISING SAME AS ACTIVE INGREDIENT” (KOREA RESERARCH INSTITUTE OF CHEMICAL TECHNOLOGY, priority 2021, published 2024)
pIC50: −log10 of the molar value.

Assays:
[1] = target: HER2 A775_G776insYVMA (Homo sapiens (Human), UniProt P04626, INS775YVMA); test: HTRF inhibitory activity against HER2 mutant enzyme; format: biochemical; details: recombinant enzyme, 37° C. for 2 hours
Summary of the method: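 Recombinant HER2 A775_G776insYVMA preincubated with compound, then […] and biotinylated peptide ([…]) added; 2 h at 37 °C in Tris-HCl pH 7.5 buffer with MgCl2, DTT. HTRF detection (Eu anti-phosphotyrosine/streptavidin-XL665); IC50 from 7 concentrations.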

[2] = tested on: Ba/F3 EGFR V769_D770insASV; test: Growth inhibition of Ba/F3 EGFR mutant cells (CellTiter-Glo); format: cell-based; details: 72 hours
Summary of the method: (§1)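 Ba/F3 cells expressing either EGFR insertion mutant were seeded at 1,000 cells/well and dosed 24 h later at eight concentrations from 0 to 10 μM. After 72 h, viability was read by CellTiter-Glo ATP signal. IC50 (μM) was fitted from the eight-point curves.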

[3] = tested on: Ba/F3 EGFR D770_N771insSVD; test: as above; format: cell-based; details: Ba/F3 EGFR-D770-N771ins_SVD, 72 hours
Summary of the method: as §1

[4] = target: EGFR del19 (Homo sapiens (Human), UniProt P00533, DEL746-750); test: HTRF inhibitory activity against EGFR mutant enzyme (EGFR del19); format: biochemical; details: recombinant enzyme, 37° C. for 2 hours
Summary of the method: (§2)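 Recombinant EGFR del19 or A763_Y764insFHEA was premixed with compound in 50 mM Tris pH 7.5 with 7.5 mM MgCl2 and 1 mM DTT. ATP (50 mM as printed) and biotin-peptide (0.5 mM) were added and reacted 2 h at 37 °C. The HTRF 665/615 read used streptavidin-XL665 and Eu anti-phosphotyrosine. IC50 was fitted from 7 concentrations.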

[5] = tested on: Ba/F3 HER2 A775_G776insYVMA; test: Growth inhibition of Ba/F3 HER2 mutant cells (CellTiter-Glo); format: cell-based; details: Mus musculus, BaF3, 72 hours
Summary of the method: (§3)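 Ba/F3 cells carrying HER2 A775_G776insYVMA or G776delinsVC were seeded at 1,000 cells/well and dosed 24 h later at 0.01-10 μM (8 concentrations including 0). After 72 h, viability was read as cellular ATP by CellTiter-Glo luminescence, and IC50 values were calculated from the 8-point curves.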

[6] = tested on: Ba/F3 HER2 G776delinsVC; test: as above; format: cell-based; details: Mus musculus, BaF3, 72 hours
Summary of the method: as §3

[7] = target: EGFR A763_Y764insFHEA (Homo sapiens (Human), UniProt P00533, INS763FHEA); test: HTRF inhibitory activity against EGFR mutant enzyme (EGFR A763_Y764insFHEA); format: biochemical; details: recombinant enzyme, 37° C. for 2 hours
Summary of the method: as §2

Sequence of EGFR A763_Y764insFHEA (P00533 other isoform, or with tags, fused parts or gaps del 1-694/ins FHEA behind 763 limits assumed): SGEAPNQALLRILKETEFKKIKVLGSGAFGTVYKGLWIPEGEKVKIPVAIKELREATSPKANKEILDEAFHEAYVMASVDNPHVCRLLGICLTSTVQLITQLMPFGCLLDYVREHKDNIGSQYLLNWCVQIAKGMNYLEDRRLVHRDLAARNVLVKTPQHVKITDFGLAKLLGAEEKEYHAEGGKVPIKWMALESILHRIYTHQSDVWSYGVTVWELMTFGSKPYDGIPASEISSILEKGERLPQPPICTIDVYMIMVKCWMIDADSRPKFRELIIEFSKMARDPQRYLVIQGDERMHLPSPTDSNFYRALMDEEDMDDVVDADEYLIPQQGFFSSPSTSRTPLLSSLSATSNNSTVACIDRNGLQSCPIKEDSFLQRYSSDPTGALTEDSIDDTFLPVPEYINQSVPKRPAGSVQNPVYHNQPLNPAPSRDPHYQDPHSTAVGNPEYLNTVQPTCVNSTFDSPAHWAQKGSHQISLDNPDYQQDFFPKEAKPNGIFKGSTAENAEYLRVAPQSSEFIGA
Sequence of HER2 A775_G776insYVMA (P04626 other isoform, or with tags, fused parts or gaps del 1-675/ins YVMA behind 775 limits assumed): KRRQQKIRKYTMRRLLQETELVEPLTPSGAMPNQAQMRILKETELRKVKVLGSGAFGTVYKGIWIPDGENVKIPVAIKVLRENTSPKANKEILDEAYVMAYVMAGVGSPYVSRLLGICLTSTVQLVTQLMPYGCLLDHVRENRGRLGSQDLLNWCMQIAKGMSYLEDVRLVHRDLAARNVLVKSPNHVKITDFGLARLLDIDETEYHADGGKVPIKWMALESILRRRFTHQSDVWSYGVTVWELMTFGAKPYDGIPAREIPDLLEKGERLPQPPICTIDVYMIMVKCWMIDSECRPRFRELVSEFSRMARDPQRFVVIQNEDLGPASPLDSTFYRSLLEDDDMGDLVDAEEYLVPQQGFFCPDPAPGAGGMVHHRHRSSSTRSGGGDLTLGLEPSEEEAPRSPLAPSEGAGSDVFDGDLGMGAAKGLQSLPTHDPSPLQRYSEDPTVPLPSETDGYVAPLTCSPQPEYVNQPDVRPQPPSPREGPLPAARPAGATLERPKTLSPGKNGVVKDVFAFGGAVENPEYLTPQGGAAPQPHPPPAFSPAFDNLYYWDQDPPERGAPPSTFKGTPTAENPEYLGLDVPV
Sequence of EGFR del19 (P00533 other isoform, or with tags, fused parts or gaps del 1-668/del 746-750 limits assumed): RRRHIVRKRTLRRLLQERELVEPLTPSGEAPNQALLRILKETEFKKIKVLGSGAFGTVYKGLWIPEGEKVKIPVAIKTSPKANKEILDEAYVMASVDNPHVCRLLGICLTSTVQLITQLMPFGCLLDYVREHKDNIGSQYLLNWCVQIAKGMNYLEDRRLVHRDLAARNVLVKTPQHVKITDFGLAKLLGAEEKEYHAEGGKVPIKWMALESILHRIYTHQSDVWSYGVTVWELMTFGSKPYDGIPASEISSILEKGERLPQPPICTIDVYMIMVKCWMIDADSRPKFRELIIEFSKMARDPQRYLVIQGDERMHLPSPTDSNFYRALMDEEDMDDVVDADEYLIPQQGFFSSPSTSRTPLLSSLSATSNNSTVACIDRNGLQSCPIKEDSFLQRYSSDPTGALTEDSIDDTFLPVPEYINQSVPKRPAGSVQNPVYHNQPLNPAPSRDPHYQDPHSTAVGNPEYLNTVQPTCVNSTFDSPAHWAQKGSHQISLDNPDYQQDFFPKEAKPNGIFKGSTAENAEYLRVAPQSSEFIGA

Row | Structure (SMILES) | pIC50 [1] | pIC50 [2] | pIC50 [3] | pIC50 [4] | pIC50 [5] | pIC50 [6] | pIC50 [7]
1 | CC#CC(=O)Nc1cc(Nc2ncc(Cl)c(Nc3cccc4c3N(C(C)=O)CC4)n2)c(OC)cc1N(C)CCN(C)C [Example 97, N-(5-((4-((1-acetylindolin-7-yl)amino)-5-chloropyrimidin-2-yl)amino)-2-((2-(dimethylamino)ethyl)(methyl)amino)-4-methoxyphenyl) but-2-inamide] | 6.59 | 7.52 to 8.00 | 7.52 to 8.00 | 7.82 | < 7.00 | > 8.00 | 6.55
2 | C=CC(=O)Nc1cc(Nc2ncc(Cl)c(Nc3ccccc3NS(C)(=O)=O)n2)c(OC)cc1OCCN1CCCC1 [Example 22, N-(5-((5-chloro-4-((2-(methylsulfonamido)phenyl)amino)pyrimidin-2-yl)amino)-4-methoxy-2-(2-(pyrrolidin-1-yl)ethoxy)phenyl)acrylamide] | 7.66 | < 7.00 | < 7.00 | > 9.00 | < 7.00 | 7.52 to 8.00 | 8.52
3 | C=CC(=O)Nc1cc(Nc2ncc(Cl)c(Nc3ccccc3NC(C)=O)n2)c(OC)cc1N(C)CCN(C)C [Example 90, N-(5-((4-((2-acetamidophenyl)amino)-5-chloropyrimidin-2-yl)amino)-2-((2-(dimethylamino)ethyl)(methyl)amino)-4-methoxyphenyl)acrylamide] | 7.43 | 7.30 to 7.52 | 7.30 to 7.52 | 9.00 | < 7.00 | > 8.00 | 8.15
4 | C=CC(=O)Nc1cc(Nc2ncc(Cl)c(Nc3ccccc3N(C(C)C)S(C)(=O)=O)n2)c(OC)cc1N(C)CCN(C)C [Example 32, N-(5-((5-chloro-4-((2-(N-isopropylmethylsulfonamido)phenyl)amino)pyrimidin-2-yl)amino)-2-((2-(dimethylamino)ethyl)(methyl)amino)-4-methoxyphenyl)acrylamide] | 8.10 | 7.30 to 7.52 | 7.30 to 7.52 | > 9.00 | 7.30 to 7.52 | > 8.00 | 9.00
5 | C=CC(=O)Nc1cc(Nc2ncc(Cl)c(Nc3ccc(C)c(C)c3N(C)C(C)=O)n2)c(OC)cc1N(C)CCN(C)C [Example 83, N-(5-((5-chloro-4-((3,4-dimethyl-2-(N-methylacetamido)phenyl)amino)pyrimidin-2-yl)amino)-2-((2-(dimethylamino)ethyl)(methyl)amino)-4-methoxyphenyl)acrylamide] | 6.43 | 7.30 to 7.52 | 7.30 to 7.52 | 8.52 | < 7.00 | > 8.00 | 7.72
6 | C=CC(=O)Nc1cc(Nc2ncc(Cl)c(Nc3ccccc3N(CC)S(=O)(=O)CC)n2)c(OC)cc1N(C)CCN(C)C [Example 33, N-(5-((5-chloro-4-((2-(N-ethylethylsulfonamido)phenyl)amino)pyrimidin-2-yl)amino)-2-((2-(dimethylamino)ethyl)(methyl)amino)-4-methoxyphenyl)acrylamide] | 8.15 | > 8.00 | 7.30 to 7.52 | > 9.00 | 7.30 to 7.52 | > 8.00 | > 9.00
7 | C=CC(=O)Nc1cc(Nc2ncc(Cl)c(Nc3ccccc3NS(C)(=O)=O)n2)c(OC)cc1N(C)CCNC [Example 25, N-(5-((5-chloro-4-((2-(methylsulfonamido)phenyl)amino)pyrimidin-2-yl)amino)-4-methoxy-2-(methyl(2-(methylamino)ethyl)amino)phenyl)acrylamide] | 8.22 | < 7.00 | < 7.00 | > 9.00 | < 7.00 | < 7.00 | > 9.00
8 | C=CC(=O)Nc1cc(Nc2ncc(Cl)c(Nc3cccc4c3N(S(C)(=O)=O)CCC4)n2)c(OC)cc1N(C)CCN(C)C [Example 47, N-(5-((5-chloro-4-((1-(methylsulfonyl)-1,2,3,4-tetrahydroquinolin-8-yl)amino)pyrimidin-2-yl)amino)-2-((2-(dimethylamino)ethyl)(methyl)amino)-4-methoxyphenyl)acrylamide] | 8.22 | > 8.00 | > 8.00 | > 9.00 | > 8.00 | > 8.00 | > 9.00
9 | C=CC(=O)Nc1cc(Nc2ncc(Cl)c(Nc3ccc(C)cc3NC(C)=O)n2)c(OC)cc1N(C)CCN(C)C [Example 88, N-(5-((4-((2-acetamido-4-methylphenyl)amino)-5-chloropyrimidin-2-yl)amino)-2-((2-(dimethylamino)ethyl)(methyl)amino)-4-methoxyphenyl)acrylamide] | 7.85 | 7.52 to 8.00 | 7.52 to 8.00 | > 9.00 | 7.30 to 7.52 | > 8.00 | 8.70
10 | C=CC(=O)Nc1cc(Nc2ncc(Cl)c(Nc3cccc(Cl)c3N(C)S(C)(=O)=O)n2)c(OC)cc1N(C)CCN(C)C [Example 35, N-(5-((5-chloro-4-((3-chloro-2-(N-methylmethylsulfonamido)phenyl)amino)pyrimidin-2-yl)amino)-2-((2-(dimethylamino)ethyl)(methyl)amino)-4-methoxyphenyl)acrylamide] | 7.57 | 7.30 to 7.52 | 7.30 to 7.52 | > 9.00 | 7.00 to 7.30 | > 8.00 | 8.52
11 | C=CC(=O)Nc1cc(Nc2ncc(Cl)c(Nc3cccc(CC)c3N(C)S(C)(=O)=O)n2)c(OC)cc1N(C)CCN(C)C [Example 41, N-(5-((5-chloro-4-((3-ethyl-2-(N-methylmethylsulfonamido)phenyl)amino)pyrimidin-2-yl)amino)-2-((2-(dimethylamino)ethyl)(methyl)amino)-4-methoxyphenyl)acrylamide] | 8.05 | 7.30 to 7.52 | 7.30 to 7.52 | > 9.00 | 7.00 to 7.30 | > 8.00 | 9.00
12 | C=CC(=O)Nc1cc(Nc2ncc(Cl)c(Nc3cccc(C)c3N(CC)S(C)(=O)=O)n2)c(OC)cc1N(C)CCN(C)C [Example 39, N-(5-((5-chloro-4-((2-(N-ethylmethylsulfonamido)-3-methylphenyl)amino)pyrimidin-2-yl)amino)-2-((2-(dimethylamino)ethyl)(methyl)amino)-4-methoxyphenyl)acrylamide] | 8.10 | > 8.00 | 7.30 to 7.52 | > 9.00 | 7.30 to 7.52 | > 8.00 | > 9.00
13 | C=CC(=O)Nc1cc(Nc2ncc(Cl)c(Nc3cccc4c3N(S(C)(=O)=O)CC4)n2)c(OC)cc1N1CCC(N(C)C)CC1 [Example 58, N-(5-((5-chloro-4-((1-(methylsulfonyl)indolin-7-yl)amino)pyrimidin-2-yl)amino)-2-(4-(dimethylamino)piperidin-1-yl)-4-methoxyphenyl)acrylamide] | 7.05 | 7.00 to 7.30 | 7.00 to 7.30 | > 9.00 | 7.00 to 7.30 | > 8.00 | 8.00
14 | C=CC(=O)Nc1cc(Nc2ncc(Cl)c(Nc3cccc4c3N(S(C)(=O)=O)CCC4)n2)c(OC)cc1N(C)CCNC [Example 48, N-(5-((5-chloro-4-((1-(methylsulfonyl)-1,2,3,4-tetrahydroquinolin-8-yl)amino)pyrimidin-2-yl)amino)-4-methoxy-2-(methyl(2-(methylamino)ethyl)amino)phenyl)acrylamide] | 7.70 | 7.00 to 7.30 | 7.00 to 7.30 | 8.52 | 7.00 to 7.30 | > 8.00 | 8.15
